From US10118954B2, “Apelin analogues” (University of Ulster, priority 2014, dated 2018)

Legend:
[1] = Degradation of apelin peptides by plasma from fasted normal NIH Swiss mice (rp-HPLC, MALDI-TOF MS); assay type: in vitro ADME
How it was run: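 Apelin peptides were incubated with plasma from fasted normal NIH Swiss mice for 4 h, and the reaction was stopped with TFA. Products were separated by C-8 rp-HPLC with detection at 214 nm. Peak fractions were identified by MALDI-TOF MS, giving fragment molecular weights and retention times.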

[2] = system: NIH Swiss mice fed a high-fat diet for 150 days; experiment: Acute and delayed i.p. glucose tolerance test, blood glucose and plasma insulin; assay type: in vivo; details: fatty acid derived agonists
How it was run: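 Diet-induced obese-diabetic mice (high-fat diet 150 days, 18 h fasted) received i.p. glucose (18 mmol/kg) alone or with apelin analogues (25 nmol/kg), or analogues given 2, 8 or 16 h beforehand. Tail blood glucose and plasma insulin sampled at 0, 15, 30, 60, 105 min; n=8, mean±SEM.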

[3] = NIH Swiss, mouse, plasma, pH 7.4
[4] = 16 h delayed i.p. glucose tolerance test, 25 nmol/kg
[5] = acute i.p. glucose tolerance test, 25 nmol/kg

- Rank order of stability [1]: =1
- Half-life (t1/2) ([1]; NIH Swiss, mouse, plasma, 263 µg/mL, pH 7.4): >24 h
- half-life at 263 µg/mL [1, 3]: > 24 h
- remaining at 4 h, 263 µg/mL [1, 3]: 100%
Compound: CCCCCCCCCCCCCCCC(=O)N[C@@H](CCC(=O)NCCCC[C@H](NC(=O)[C@H](Cc1c[nH]cn1)NC(=O)[C@H](CO)NC(=O)[C@H](CC(C)C)NC(=O)[C@H](CCCNC(=N)N)NC(=O)[C@@H]1CCCN1C(=O)[C@H](CCCNC(=N)N)NC(=O)[C@@H]1CCC(=O)N1)C(=O)NCC(=O)N1CCC[C@H]1C(=O)N[C@@H](CCSC)C(=O)N1CCC[C@H]1C(=O)N[C@@H](Cc1ccccc1)C(N)=O)C(=O)O [pGlu(Lys^8GluPAL)apelin-13-amide]
- Rank order on basis of anti-hyperglycaemic efficacy ([2]; 16 h delay): 1
- Blood glucose as percent of glucose-alone control (lower = stronger glucose lowering) [2, 4]: 57% (**)
- Insulin secretion, where glucose alone = 100% [2, 4]: 150% (***)
- Rank order on basis of anti-hyperglycaemic efficacy ([2]; acute): 1
- Glucose lowering, where glucose alone = 100% [2, 5]: 79%
- Insulin secretion, where glucose alone = 100% [2, 5]: 119% (*)
